Converted amounts (≈) assume the structure as drawn. Like-named read-outs stand apart in the source and are kept apart here.
Experiments:
[1] = system: influenza A virus nucleoprotein (NP); assay: Immunohistochemistry of viral nucleoprotein in lung tissue of H1N1-infected mice; assay type: in vivo, BALB/c mice; settings: C1-treated mice vs indirubin-treated mice and model group; day 4
Description: Five-week-old healthy male BALB/c mice (n = 6 per group) were maintained in pathogen-free individual cages with free access to drinking water and sterilized food, as described previously. The mice were randomly allocated into the following groups: normal control group, H1N1 model group, C1 (2.5, 5, 10 mg/kg) treatment group, and positive control group treated with oseltamivir (20 mg/kg, positive control). Except for normal controls, the rest of mice were intranasally infected with 30 μL of diluted H1N1virus (3LD50) after light anesthesia. Negative control mice (normal group) were challenged by inhaling equal volumes (30 μL) of virus diluent as the other mice. […]
Influenza virus load, expression of NPs and ionized calcium binding adaptor molecule-1(Iba-1) were determined using IHC. […]
Figure 4 Suppression of H1N1 viral replication in vivo by C1, the experimental protocol is the same as Figure 3. (A) The NA activity in lung homogenates by fluorescence effect; (B) The expression level of INF-α in lung homogenates by ELISA; (C) The expression of NP in lung tissue, the representative IHC pathological images of the lung on day 4 post-infection, the red arrow indicates viral N protein-positive signal. […]

A549 cells [2] = assay: MTT cytotoxicity assay (TC50)
[3] = system: cytokines in lung homogenates; assay: ELISA of cytokines in lung tissue homogenates of H1N1-infected mice; assay type: in vivo, BALB/c mice; settings: for expression level of IL-10 in lung homogenates / expression level of INF-γ in lung homogenates: C1 10 mg/kg, Os. 20 mg/kg, vs H1N1 virus group; for IL-1β level in lung homogenates / IL-6 level in lung homogenates / MCP-1 production in lung homogenates / TNF-α level in lung homogenates: C1 2.5, 5, 10 mg/kg, oseltamivir phosphate 20 mg/kg, vs model group, dose-dependent, p < 0.001, day 4
Description: (§1) Five-week-old healthy male BALB/c mice (n = 6 per group) were maintained in pathogen-free individual cages with free access to drinking water and sterilized food, as described previously. The mice were randomly allocated into the following groups: normal control group, H1N1 model group, C1 (2.5, 5, 10 mg/kg) treatment group, and positive control group treated with oseltamivir (20 mg/kg, positive control). Except for normal controls, the rest of mice were intranasally infected with 30 μL of diluted H1N1virus (3LD50) after light anesthesia. Negative control mice (normal group) were challenged by inhaling equal volumes (30 μL) of virus diluent as the other mice. Then, 2 h later, C1 (2.5, 5, 10 mg/kg) and Oseltamivir (20 mg/kg) dissolved in 5% CMC-Na solution were given to mice (0.1 mL/10 g) once per day (i.g.) at day 0 (D0), day 1 (D1), day 2 (D2) and day 3 (D3) after infection with H1N1 virus. At the same time, normal and model groups were administered equivalent amounts of 0.5% CMC-Na in the same way. Post-infection on day 4, the mice were sacrificed to collect blood plasma, lung and liver, which were weighed.
Pulmonary tissue homogenates were collected from mice lungs by centrifugation at 4500 rpm for 20 min. BCA assay was used to quantify the total protein in the supernatant of lung homogenates. Cytokine levels of IL-1β, IL-6, TNF-α, IL-10, MCP-1, INF-γ and INF-α were determined, as instructed by the manufacturer.
Figure 5 C1-alleviated lung injury in mice after 4 days of administration (n = 6, means ± S.D.); the experiment design is the same as Figure 3. Concentration of chemokines/cytokines/interferon was measured on day 4 post-infection by ELISA in lung homogenates (n = 6). (A) IL-6; (B) IL-1β; (C) TNF-α; (D) MCP-1; (E) IL-10; (F) IFN-γ.

[4] = system: influenza virus H1N1 (A/FM/1/47); settings: for lung index: day 4, p < 0.001 vs model
[5] = system: ionized calcium binding adaptor molecule-1 (Iba-1); parameters: species or system BALB/c mice; settings: mouse, in vivo
neuraminidase (NA) = assay: Neuraminidase activity assay in lung homogenates of H1N1-infected mice; assay type: in vivo, BALB/c mice
Description: as §1, with “At the same time, normal and model groups were administered equivalent amounts of 0.5% CMC-Na in the same way. Post-infection on day 4, the mice were sacrificed to collect blood plasma, lung and liver, which were weighed.” left out
Viral titers were measured using neuraminidase (NA) assay kit designed to detect antiviral effects. […] A reaction mixture consisted of 10 μL lung homogenates, 70 μL detection buffer, 10 μL Mill-Q water and 10 μL NA fluorescence substrate in a 96-well plate. […] The fluorescence of the mixture was quantified at 322 nm of excitation wavelength and 450 nm of emission wavelength with a muti-mode microplate read (Waltham, VT, USA). […]

H1N1 virus = assay: microbe, parasite or virus in culture; assay type: cell-based, influenza A virus; settings: for IC50: Influenza A virus, H1N1, MDCK, 72 h
Solubility observation = assay type: physicochemical; settings: sterile water
A549 cells [6] = settings: human
hepatitis C virus = system: hepatitis C virus; parameters: method as in earlier work; settings: cited from earlier work
H1N1 influenza virus = assay: H1N1-induced ALI in mice treated with EA extract: lung index, liver index, body weight, H&E; assay type: in vivo

For `Cc1nc2ccccc2c(=O)[nH]1` [Compound C1, 2-Methylquinazolin-4(3H)-one], the “viral N protein-positive signals in lung tissue” value [1] was “fewer positive signals”, the TC50 (A549 cells [2]) was 79.7 µg/mL (≈ 498 µM) and the “expression level of IL-10 in lung homogenates” value [3] was “higher”. The “expression level of INF-γ in lung homogenates” value [3] was “higher”, the “IL-1β level in lung homogenates” value [3] was “significantly reduced” and the “IL-6 level in lung homogenates” value [3] was “significantly reduced”. The “MCP-1 production in lung homogenates” value [3] was “significantly reduced”, the “TNF-α level in lung homogenates” value [3] was “significantly reduced” and the “production of IFN-α in lung homogenates” value ([3]; after treatment with C1, ELISA) was “remarkably decreased”. The lung index ([4]; C1 2.5 mg/kg i.g. once daily D0-D3, model 10.27 ± 0.50, normal 6.40 ± 0.14) was 8.85 ± 0.47 mg/g, the “weight rate of mice raised” value ([4]; C1 2.5 mg/kg, days 0-4, model decreased 4.5%) was 2% and the lung index ([4]; C1 5 mg/kg i.g. once daily D0-D3, model 10.27 ± 0.50) was 8.60 ± 0.29 mg/g. The “weight rate of mice decreased” value ([4]; C1 5 mg/kg, days 0-4, model decreased 4.5%) was 2%, the lung index ([4]; C1 10 mg/kg i.g. once daily D0-D3, model 10.27 ± 0.50) was 8.36 ± 0.28 mg/g and the “weight rate of mice raised” value ([4]; C1 10 mg/kg, days 0-4) was 0.2%. The “lung histological damage (H&E)” value ([4]; mouse, in vivo) was “significantly less”, the “toxicity on liver and spleen” value ([4]; mouse, in vivo, po) was “no toxicity” and the “Iba-1 positive signals in lung tissue (macrophage recruitment)” value [5] was “fewer positive signals”. For the same compound, the “NA activity in lung homogenates” value (neuraminidase (NA); C1 2.5 mg/kg, vs model control) was “no differences”, the “NA activity in lung homogenates” value (neuraminidase (NA); C1 5, 10 mg/kg, vs model group, p < 0.05) was “significantly lower” and the IC50 (H1N1 virus) was 23.8 µg/mL (≈ 149 µM). The solubility (Solubility observation) was “soluble”.
For `CC1(C)C[C@H](O)C[C@@]2(C)OC(=O)C=C12` [Compound C2, loliolide], the TC50 (A549 cells [6]) is listed as 26.7 µg/mL (≈ 136 µM), the “inhibition of the hepatitis C virus” value (hepatitis C virus) is listed as “potent inhibitor” and the antiviral activity (H1N1 virus) is listed as “did not exert any antiviral activity”.
Work on `Cc1nc2ccccc2c(=O)n1-c1ccccc1O` [Compound C3, 3-(2′-Hydroxyphenyl)-2-methyl-4(3H)-quinazolinone] yielded a TC50 (A549 cells [2]) of 106.8 µg/mL (≈ 423 µM) and an IC50 (H1N1 virus) of 100 µg/mL (≈ 396 µM).
In the case of `O=C1c2cc(O)cc(O)c2CN1c1ccc(O)cc1` [Compound C4, clitocybin A], the TC50 (A549 cells [2]) is reported as 167.7 µg/mL (≈ 652 µM) and the antiviral activity (H1N1 virus) is reported as “did not exert any antiviral activity”.
For `CCOC(=O)C1=C[C@@H](OC(CC)CC)[C@H](NC(C)=O)[C@@H](N)C1` [Os., Oseltamivir phosphate, reference compound], the “expression level of IL-10 in lung homogenates” value [3] was “higher”, the “expression level of INF-γ in lung homogenates” value [3] was “higher” and the “IL-1β level in lung homogenates” value [3] was “significantly reduced”. The “IL-6 level in lung homogenates” value [3] was “significantly reduced”, the “MCP-1 production in lung homogenates” value [3] was “significantly reduced” and the “TNF-α level in lung homogenates” value [3] was “significantly reduced”. The “weight rate of mice raised” value ([4]; Os. 20 mg/kg, days 0-4) was 21.6% and the “lung histological damage (H&E)” value ([4]; mouse, in vivo) was “significantly less”.
With `NC(=O)c1ncn([C@@H]2O[C@H](CO)[C@@H](O)[C@H]2O)n1` [Ribavrin, Ribavirin] the “body weight over 5 days” value (H1N1 influenza virus; EA extract 10 mg/kg, Ribavirbin 100 mg/kg, day 1 to day 5) was “gained weight”, the “lung tissue histological changes (H&E)” value (H1N1 influenza virus; EA extract and Ribavirin groups compared to the infected group) was “relieved tissue consolidation” and the lung index (H1N1 influenza virus; Ribavirbin 100 mg/kg i.g. once daily 4 days, model 11.58 ± 0.39, p < 0.001) was 7.32 ± 0.39 mg/g. The liver index (H1N1 influenza virus; Ribavirbin 100 mg/kg, model 50.73 ± 0.58, normal 62.79 ± 1.24) was 59.60 ± 1.68 mg/g and the IC50 (H1N1 virus) was 37.2 µg/mL (≈ 152 µM).
For `O=C1Nc2ccccc2/C1=C1/Nc2ccccc2C1=O` [indirubin, reference compound], the “lung edema measured as lung index” value ([4]; mouse, in vivo) was “minimal effect”, the “lung histological damage (H&E)” value ([4]; mouse, in vivo) was “no evident histological alteration” and the “Iba-1 positive signals in lung tissue (macrophage recruitment)” value [5] was “fewer positive signals”.

Source: PMC9697438, “Therapeutic Potential of 2-Methylquinazolin-4(3H)-one as an Antiviral Agent against Influenza A Virus-Induced Acute Lung Injury in Mice” (Molecules, 2022)
